Activity calls are given as the source filed them.
Experiments:
[1] = HEK-293T cell viability reduction – luminescence, B-cell screen hits, cytotoxicity control for BCR NF-kB inhibitor project, dose response (AID 489021); format: functional, cell-based;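 note: HEK-293T cells carrying an NF-kB luciferase reporter; cells exposed to compound for about 14 hours before viability readout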
[2] = molecular target: Prothrombin (Homo sapiens, UniProt P00734); experiment: Thrombin 1536 HTS Dose Response Confirmation. [Related pubchem assays: 1046 (Thrombin 1536 HTS; hits were confirmed in this assay)]; format: functional
[3] = molecular target: T1, Heat shock factor protein 1 (Mus musculus, UniProt P38532); experiment: decrease of HSF1-responsive luciferase luminescence – cell-based, NIH3T3, dose retest, confirmation (AID 2382); format: functional;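 note: NIH3T3 fibroblasts with HSF1-driven luciferase reporter stressed by proteasome inhibitor MG132; luminescence from HSF1-driven luciferase expression after 8 hours of MG132 stress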
T1 sequence (P38532 whole entry): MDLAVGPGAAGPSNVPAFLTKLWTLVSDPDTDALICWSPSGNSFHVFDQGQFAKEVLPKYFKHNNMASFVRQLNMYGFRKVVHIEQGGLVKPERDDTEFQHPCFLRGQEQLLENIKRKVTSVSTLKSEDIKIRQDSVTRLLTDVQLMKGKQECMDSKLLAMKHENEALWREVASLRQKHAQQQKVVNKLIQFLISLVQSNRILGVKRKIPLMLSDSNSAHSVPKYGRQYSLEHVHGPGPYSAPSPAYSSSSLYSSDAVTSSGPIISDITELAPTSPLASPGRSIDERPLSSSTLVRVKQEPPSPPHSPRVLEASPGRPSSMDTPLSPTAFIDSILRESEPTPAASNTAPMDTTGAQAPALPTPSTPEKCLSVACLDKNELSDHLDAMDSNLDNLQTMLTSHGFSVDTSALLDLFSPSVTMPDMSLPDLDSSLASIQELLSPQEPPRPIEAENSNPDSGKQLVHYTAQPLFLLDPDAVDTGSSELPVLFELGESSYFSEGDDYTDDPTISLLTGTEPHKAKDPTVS

[4] = molecular target: Nonstructural protein 1 (Influenza A virus, UniProt Q194T2); format: functional, Influenza A virus (A/California/07/2009(H1N1))
[5] = molecular target: Large T antigen (Simian virus 40, UniProt P03070); format: functional, Betapolyomavirus macacae;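 note: Confirmatory-stage PubChem screen for compounds that inhibit SV40 T antigen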
[6] = molecular target: Genome polyprotein (dengue virus type 2, UniProt P29990); experiment: flavivirus cap methylation enzyme inhibition – biochemical, confirmation dose response, primary screen (AID 588689); format: functional
[7] = molecular target: T2, Fatty acid synthase (Homo sapiens, UniProt P49327); experiment: inhibition of human FAS-TE enzyme activity – biochemical, kinetic fluorescence intensity, dose response (AID 624326); format: functional;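 note: rate of fluorescence rise from hydrolysis of a fluorogenic O-methyl fluorescein ester substrate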
[8] = molecular target: T2, Fatty acid synthase; experiment: inhibition of human FAS-TE enzyme activity – biochemical, endpoint fluorescence intensity, uHTS hits, dose response (AID 624327); format: functional;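 note: fluorescence from hydrolysis of an O-methyl fluorescein acyl ester substrate by the enzyme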
[9] = microbe, parasite or virus in culture; format: functional; details: Mycobacterium tuberculosis
[10] = Luminescence-based cell-based high throughput dose response assay to identify activators of the DAF-12 from the parasite S. stercoralis (ssDAF-12).; format: functional
[11] = molecular target: T3, Carboxy-terminal domain RNA polymerase II polypeptide A small phosphatase 1 (Homo sapiens, UniProt Q9GZU7); experiment: CTDSP1 inhibitors, concentration-response, biochemical, absorbance readout, ultra-high-throughput screen actives (AID 540297); format: functional
T3 sequence (Q9GZU7 whole entry): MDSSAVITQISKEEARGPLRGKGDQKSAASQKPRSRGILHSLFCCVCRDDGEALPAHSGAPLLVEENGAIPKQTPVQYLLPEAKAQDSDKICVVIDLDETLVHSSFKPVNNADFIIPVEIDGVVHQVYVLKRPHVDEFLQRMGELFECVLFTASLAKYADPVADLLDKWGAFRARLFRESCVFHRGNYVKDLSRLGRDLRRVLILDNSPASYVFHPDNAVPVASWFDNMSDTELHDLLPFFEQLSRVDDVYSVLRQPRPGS

[12] = molecular target: T4, Caspase-6 (Homo sapiens, UniProt P55212); experiment: inhibition of CASP6 peptide cleavage – biochemical, VEID-R110 fluorescence, cherry-pick, dose response (AID 720632)
T4 sequence (P55212 whole entry): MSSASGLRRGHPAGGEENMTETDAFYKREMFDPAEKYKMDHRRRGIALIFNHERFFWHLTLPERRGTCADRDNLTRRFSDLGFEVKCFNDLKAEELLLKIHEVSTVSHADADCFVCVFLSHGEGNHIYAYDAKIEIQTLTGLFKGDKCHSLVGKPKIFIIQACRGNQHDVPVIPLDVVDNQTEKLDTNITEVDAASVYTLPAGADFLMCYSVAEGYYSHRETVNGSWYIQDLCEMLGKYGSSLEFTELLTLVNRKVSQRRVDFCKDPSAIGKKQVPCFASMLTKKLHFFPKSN

[13] = luciferase reporter signal suppression in cells – H4 neuroglioma cells, luminescence, dose response (AID 1990); format: functional, cell-based
[14] = alpha-synuclein stem-loop luciferase translation blockers – H4 neuroglioma cells, luminescence, confirmation (AID 1988); format: functional, cell-based
[15] = Luminescence Cell-Based Dose Response HTS to Identify Inhibitors of 5'UTR Stem-Loop Driven Prion Protein mRNA Translation in H4 Neuroglioblastoma Cells. [Related pubchem assays: 1827 (Project Summary), 1813 (Primary HTS)]; format: functional
[16] = Trypanosoma cruzi growth suppression in host cells – NIH3T3 host cells, beta-gal luminescence, confirmation (AID 2044); format: functional, cell-based;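 note: intracellular parasites grown in NIH/3T3 mouse fibroblasts as host cells; luminescent beta-galactosidase reporter signal from transgenic T. cruzi replicating inside host cells; inhibitors lower the luminescence signal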
[17] = NIH3T3 cell viability loss – ATP luminescence, mouse fibroblasts, counter-screen, dose response (AID 2010); format: functional, cell-based;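 note: cells exposed to compound for about 90 hours before reading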
[18] = molecular target: DNA dC->dU-editing enzyme APOBEC-3G (Homo sapiens, UniProt Q9HC16); experiment: Dose Response confirmation of small molecule APOBEC3G DNA Deaminase Inhibitors via a fluorescence-based single-stranded DNA deaminase assay. [Related pubchem assays (depositor defined):AID493012, AID493028]; format: functional
[19] = tested on: H4; experiment: Luminescence Cell-Based Dose Response HTS to Identify Activators of 5'UTR Stem-Loop Driven Prion Protein mRNA Translation in H4 Neuroglioblastoma Cells. [Related pubchem assays: 1829 (Project Summary), 1814 (Primary HTS)]; format: functional; details: Homo sapiens
[20] = Luminescence Cell-Based Dose Response HTS to Identify Activators of Luciferase Translation or Activity in H4 […] Cells. [Related pubchem assays: 1829 (Project Summary), 1814 (Primary HTS)]; format: functional
[21] = Luminescence Cell-Based Dose Confirmation HTS to Identify Activators of 5'UTR Stem-Loop Driven Alpha-Synuclein mRNA Translation in H4 Neuroglioblastoma Cells. [Related pubchem assays: 1829 (Project Summary), 1814 (Primary HTS)]; format: functional

T2 sequence (P49327 whole entry): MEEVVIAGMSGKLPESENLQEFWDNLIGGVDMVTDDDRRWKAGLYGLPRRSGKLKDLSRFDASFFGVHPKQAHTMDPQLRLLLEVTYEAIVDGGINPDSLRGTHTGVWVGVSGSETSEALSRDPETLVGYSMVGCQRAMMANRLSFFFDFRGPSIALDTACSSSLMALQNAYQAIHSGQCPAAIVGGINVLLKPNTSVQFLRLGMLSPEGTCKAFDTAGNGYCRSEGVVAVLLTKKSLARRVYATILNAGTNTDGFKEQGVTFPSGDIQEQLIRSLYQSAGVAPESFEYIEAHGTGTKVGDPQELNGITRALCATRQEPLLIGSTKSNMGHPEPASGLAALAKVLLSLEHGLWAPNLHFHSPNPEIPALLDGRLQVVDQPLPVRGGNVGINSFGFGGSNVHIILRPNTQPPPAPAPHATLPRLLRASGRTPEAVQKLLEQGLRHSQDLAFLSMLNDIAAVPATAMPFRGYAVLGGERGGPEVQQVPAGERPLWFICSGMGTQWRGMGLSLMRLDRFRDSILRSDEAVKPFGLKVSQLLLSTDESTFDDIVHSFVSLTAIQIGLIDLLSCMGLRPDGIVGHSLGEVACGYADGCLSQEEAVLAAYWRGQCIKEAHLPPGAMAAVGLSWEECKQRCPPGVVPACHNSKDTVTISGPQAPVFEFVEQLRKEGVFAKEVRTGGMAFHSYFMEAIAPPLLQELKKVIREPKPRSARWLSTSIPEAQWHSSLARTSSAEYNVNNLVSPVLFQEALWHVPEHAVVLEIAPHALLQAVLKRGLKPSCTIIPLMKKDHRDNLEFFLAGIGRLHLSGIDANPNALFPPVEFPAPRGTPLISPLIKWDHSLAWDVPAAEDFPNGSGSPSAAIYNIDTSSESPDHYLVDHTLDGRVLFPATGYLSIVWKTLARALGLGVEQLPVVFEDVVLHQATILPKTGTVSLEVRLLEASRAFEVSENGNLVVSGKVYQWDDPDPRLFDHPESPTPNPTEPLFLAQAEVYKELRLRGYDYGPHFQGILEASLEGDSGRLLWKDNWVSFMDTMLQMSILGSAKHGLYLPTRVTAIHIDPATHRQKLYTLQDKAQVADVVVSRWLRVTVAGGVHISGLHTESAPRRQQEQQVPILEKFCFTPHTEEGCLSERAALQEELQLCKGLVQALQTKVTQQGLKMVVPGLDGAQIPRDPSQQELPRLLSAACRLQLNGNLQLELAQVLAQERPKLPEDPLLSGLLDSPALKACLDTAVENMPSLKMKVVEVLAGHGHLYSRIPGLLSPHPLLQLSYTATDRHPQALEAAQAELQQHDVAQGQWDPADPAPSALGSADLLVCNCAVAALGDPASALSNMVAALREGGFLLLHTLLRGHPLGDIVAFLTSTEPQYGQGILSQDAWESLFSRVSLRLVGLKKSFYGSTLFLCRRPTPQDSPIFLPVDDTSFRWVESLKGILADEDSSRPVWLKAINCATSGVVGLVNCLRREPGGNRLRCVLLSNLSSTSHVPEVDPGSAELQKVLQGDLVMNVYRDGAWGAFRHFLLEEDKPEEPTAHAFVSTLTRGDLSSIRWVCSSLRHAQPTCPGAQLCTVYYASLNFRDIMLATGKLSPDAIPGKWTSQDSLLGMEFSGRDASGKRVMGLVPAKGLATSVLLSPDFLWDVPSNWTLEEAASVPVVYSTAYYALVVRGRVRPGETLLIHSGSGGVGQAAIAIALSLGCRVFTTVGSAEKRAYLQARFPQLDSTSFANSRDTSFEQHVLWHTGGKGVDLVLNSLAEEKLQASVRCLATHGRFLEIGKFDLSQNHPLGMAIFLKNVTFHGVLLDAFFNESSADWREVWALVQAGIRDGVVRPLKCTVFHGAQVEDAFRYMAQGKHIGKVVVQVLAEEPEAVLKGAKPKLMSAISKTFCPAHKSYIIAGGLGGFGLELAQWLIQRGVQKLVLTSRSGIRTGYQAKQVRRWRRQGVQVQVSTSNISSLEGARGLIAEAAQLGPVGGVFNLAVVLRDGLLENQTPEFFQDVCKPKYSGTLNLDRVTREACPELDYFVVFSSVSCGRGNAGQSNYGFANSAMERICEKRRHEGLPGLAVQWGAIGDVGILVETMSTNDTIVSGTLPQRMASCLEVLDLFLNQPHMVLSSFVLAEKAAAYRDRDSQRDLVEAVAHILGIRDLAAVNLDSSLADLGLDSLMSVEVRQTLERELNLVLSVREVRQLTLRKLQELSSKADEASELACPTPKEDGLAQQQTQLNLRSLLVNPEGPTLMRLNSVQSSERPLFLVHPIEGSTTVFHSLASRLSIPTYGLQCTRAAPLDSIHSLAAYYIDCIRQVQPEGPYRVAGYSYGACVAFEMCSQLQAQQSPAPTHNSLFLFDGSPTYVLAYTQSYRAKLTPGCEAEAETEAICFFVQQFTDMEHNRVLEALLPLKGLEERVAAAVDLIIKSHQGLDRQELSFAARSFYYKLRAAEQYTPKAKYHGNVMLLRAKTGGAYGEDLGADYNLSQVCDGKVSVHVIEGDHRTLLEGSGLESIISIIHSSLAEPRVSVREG
Chain of Large T antigen (P03070 whole entry): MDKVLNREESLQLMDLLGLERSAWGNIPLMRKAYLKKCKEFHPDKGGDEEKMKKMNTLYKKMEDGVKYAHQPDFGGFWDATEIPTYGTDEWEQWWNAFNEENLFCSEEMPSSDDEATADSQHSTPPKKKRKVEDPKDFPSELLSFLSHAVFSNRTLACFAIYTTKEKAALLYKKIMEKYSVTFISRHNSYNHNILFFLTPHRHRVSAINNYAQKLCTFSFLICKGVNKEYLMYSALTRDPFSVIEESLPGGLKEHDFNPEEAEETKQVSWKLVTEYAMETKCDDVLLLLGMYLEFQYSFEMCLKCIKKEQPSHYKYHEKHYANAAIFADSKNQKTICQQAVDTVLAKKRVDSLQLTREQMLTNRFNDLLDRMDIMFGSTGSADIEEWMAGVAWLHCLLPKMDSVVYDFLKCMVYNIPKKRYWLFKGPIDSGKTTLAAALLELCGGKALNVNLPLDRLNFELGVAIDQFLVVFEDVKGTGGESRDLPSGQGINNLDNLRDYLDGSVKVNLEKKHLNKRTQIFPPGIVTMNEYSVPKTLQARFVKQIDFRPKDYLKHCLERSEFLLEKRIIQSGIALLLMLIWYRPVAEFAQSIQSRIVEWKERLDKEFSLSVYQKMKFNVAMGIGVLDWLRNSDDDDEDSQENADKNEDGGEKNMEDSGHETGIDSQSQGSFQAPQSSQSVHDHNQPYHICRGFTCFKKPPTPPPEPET
Chain of Nonstructural protein 1 (Q194T2 whole entry): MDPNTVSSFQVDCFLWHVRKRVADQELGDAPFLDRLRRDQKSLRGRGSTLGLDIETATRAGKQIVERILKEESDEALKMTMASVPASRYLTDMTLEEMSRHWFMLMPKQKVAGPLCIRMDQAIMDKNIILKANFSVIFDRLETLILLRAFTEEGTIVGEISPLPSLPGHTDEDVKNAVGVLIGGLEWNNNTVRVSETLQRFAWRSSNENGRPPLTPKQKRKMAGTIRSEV
Chain of DNA dC->dU-editing enzyme APOBEC-3G (Q9HC16 whole entry): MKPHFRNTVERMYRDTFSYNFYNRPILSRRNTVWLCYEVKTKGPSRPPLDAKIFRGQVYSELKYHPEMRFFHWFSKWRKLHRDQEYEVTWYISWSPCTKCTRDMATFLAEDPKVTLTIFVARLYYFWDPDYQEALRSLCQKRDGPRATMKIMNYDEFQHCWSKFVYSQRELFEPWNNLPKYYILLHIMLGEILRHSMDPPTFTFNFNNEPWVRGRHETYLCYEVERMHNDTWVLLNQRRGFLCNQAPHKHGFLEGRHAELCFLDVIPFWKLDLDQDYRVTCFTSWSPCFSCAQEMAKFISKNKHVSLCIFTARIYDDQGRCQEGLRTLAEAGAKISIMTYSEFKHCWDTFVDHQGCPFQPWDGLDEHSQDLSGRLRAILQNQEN
Chain of Genome polyprotein (P29990 2492-3391 limits assumed): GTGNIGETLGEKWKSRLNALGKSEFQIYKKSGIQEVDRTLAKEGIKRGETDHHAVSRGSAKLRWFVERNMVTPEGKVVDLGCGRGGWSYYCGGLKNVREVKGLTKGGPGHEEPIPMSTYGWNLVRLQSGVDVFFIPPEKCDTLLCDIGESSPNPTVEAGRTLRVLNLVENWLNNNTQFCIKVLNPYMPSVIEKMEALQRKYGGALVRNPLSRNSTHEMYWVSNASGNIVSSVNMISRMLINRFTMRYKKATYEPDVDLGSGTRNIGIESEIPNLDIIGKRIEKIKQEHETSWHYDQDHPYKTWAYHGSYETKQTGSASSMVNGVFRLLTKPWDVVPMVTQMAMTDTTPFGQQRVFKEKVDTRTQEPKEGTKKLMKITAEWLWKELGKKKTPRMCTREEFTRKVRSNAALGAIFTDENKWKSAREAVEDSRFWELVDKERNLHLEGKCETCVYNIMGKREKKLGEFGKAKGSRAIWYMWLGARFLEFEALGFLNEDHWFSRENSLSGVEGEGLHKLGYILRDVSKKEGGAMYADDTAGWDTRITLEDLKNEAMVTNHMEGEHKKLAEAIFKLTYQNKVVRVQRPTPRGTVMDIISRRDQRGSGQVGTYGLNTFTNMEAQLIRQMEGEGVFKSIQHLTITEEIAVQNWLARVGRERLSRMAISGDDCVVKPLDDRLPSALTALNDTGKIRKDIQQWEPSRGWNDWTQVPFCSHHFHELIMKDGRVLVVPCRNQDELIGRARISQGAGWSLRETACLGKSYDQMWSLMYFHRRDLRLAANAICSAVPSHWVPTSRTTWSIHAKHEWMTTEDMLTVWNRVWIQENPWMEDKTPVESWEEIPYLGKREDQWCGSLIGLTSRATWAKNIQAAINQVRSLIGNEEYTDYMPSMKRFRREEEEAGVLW

Q: For COc1ccc(-c2ccc(F)cc2)cc1[C@H]1[C@H]2C=CC[C@@H](C)[C@@H]2C(=O)N1Cc1ccccc1, which IC50 [1] is on record?
A: > 80 µM (inactive)

Q: What does the source list for C/C(=C/C(=O)N1CCN(C)CC1)C(=O)O?
A: IC50 [2]: > 50 µM (not active); EC50 [3]: 36.8 µM (active)

Q: Which IC50 [1] does the source give for O=C(CCCN1C(=O)/C(=C/c2ccccc2Cl)SC1=S)Nc1cccnc1 here?
A: > 80 µM (inactive)

Q: For Nn1c(SC/C=C/c2ccccc2)nnc1-c1ccccn1, which IC50 [4] is on record?
A: 24 µM (active)

Q: With CSCCC(NC(=O)c1cccc(C)c1)C(=O)OCC(=O)NC(=O)c1cccn1C (centres undefined) as the molecule, how does the IC50 [2] read?
A: 39 µM (active)

Q: For COc1cc(C(=O)Nc2cc(C)c(OCC(=O)N3CCOCC3)c(C)c2)cc(OC)c1OC, which IC50 [1] is on record?
A: > 80 µM (inactive)

Q: Which IC50 [2] does the source give for Cc1ccc(N2C(S)=NC3c4ccccc4OC2(C)C3C(=O)N(C)C)cc1 (centres undefined) here?
A: > 50 µM (inconclusive)

Q: For CC1=C(C#N)c2nc(N)c(C#N)c(C)c2/C1=C\c1ccc(OCC(=O)O)c(Cl)c1, which IC50 [5] is on record?
A: 44.3 µM (active)

Q: And the EC50 [3]?
A: > 195 µM (not active)

Q: What about the IC50 [6] of the same molecule?
A: 35.9 µM (active)

Q: For O=C(COC(=O)c1cc([N+](=O)[O-])ccc1N1CCOCC1)c1ccc(F)cc1, which IC50 [7] is on record?
A: 9.03 µM (active)

Q: What about the IC50 [8] of the same molecule?
A: 5.45 µM (active)

Q: Which results are given for O=C(NCc1ccc(F)cc1)C(C(=O)NCc1ccc(F)cc1)c1ncc(C(F)(F)F)cc1Cl?
A: IC50 [7]: 11.8 µM (active); IC50 [8]: 7.79 µM (active)

Q: Which IC50 [2] does the source give for COc1ccc(OCC(=O)N2CCN(Cc3ccc(SC)cc3)CC2)cc1 here?
A: > 50 µM (not active)

Q: Which IC50 [2] does the source give for CCN(CC)S(=O)(=O)c1ccc2c(c1)c(=O)c(C(=O)NCc1cccs1)cn2C here?
A: 0.0331 µM (active)

Q: For CN1CCN(C(=O)c2ccccc2N(Cc2ccccc2)S(=O)(=O)c2ccccc2)CC1, which IC50 [1] is on record?
A: > 80 µM (inactive)

Q: For O=[N+]([O-])c1ccc(Sc2n[nH]c(-c3ccc(Cl)cc3Cl)n2)nc1, which IC50 [7] is on record?
A: 8.25 µM (active)

Q: And the IC50 [8]?
A: 7.15 µM (active)

Q: For CCN(CC)Cc1nc(O)c2c(n1)-c1ccccc1CC2(CC)CC, which CC50 [9] is on record?
A: > 40 µM (active)

Q: For Nc1nc(=O)n(C2CC(O)C(CO)O2)cc1Cl (centres undefined), which IC50 [10] is on record?
A: > 67.6 µM (inactive)

Q: For Cc1ccc(S(=O)(=O)N2CCN(C(=O)c3ccc(N4CCCC4)c([N+](=O)[O-])c3)CC2)cc1, which IC50 [4] is on record?
A: > 100 µM (active)

Q: Which IC50 [5] does the source give for COc1ccc(CNc2ccc(N3CCOCC3)cc2)cc1 here?
A: 16.8 µM (active)

Q: Which IC50 [11] does the source give for O=C(NNC(=O)c1ccccc1Br)c1ccc2nc[nH]c2c1 here?
A: 7.34 µM (active)

Q: And the AC50 [12]?
A: 23.6 µM (active)

Q: For O=C(Nc1ccc(O)cc1)/C(=C\c1ccncc1)NC(=O)c1ccccc1, which IC50 [5] is on record?
A: 27.7 µM (active)

Q: Which results are given for CCOc1ccc(-n2c(SCc3ccc([N+](=O)[O-])cc3)nnc2-c2ccccc2)cc1?
A: EC50 [13]: 15.5 µM (active); EC50 [14]: 24.9 µM (active); EC50 [15]: 69.4 µM (active); IC50 [7]: 5.2 µM (active); IC50 [8]: 6.83 µM (active)

Q: Which EC50 [16] does the source give for CCC1C(c2ccccc2)N(C)C(c2ccccc2)CC1(O)c1ccccc1 (centres undefined) here?
A: 2.31 µM (active)

Q: What about the CC50 [9] of the same molecule?
A: > 40 µM (active)

Q: And the EC50 [17]?
A: > 60 µM (not active)

Q: For CCCc1nc(NC(C)=O)c(C#N)c(-c2ccco2)c1CC, which IC50 [2] is on record?
A: > 50 µM (not active)

Q: What does the source list for CCCCC(=O)Nc1sc(C(=O)N(CC)CC)c(C)c1C(=O)OC?
A: IC50 [18]: 49.6 µM (active); EC50 [3]: > 195 µM (not active)

Q: With COc1ccc(NCc2nc3ccccc3n2CCOc2ccccc2)cc1 as the molecule, how does the EC50 [16] read?
A: 2.36 µM (active)

Q: What about the EC50 [19] of the same molecule?
A: 79.8 µM (active)

Q: And the EC50 [20]?
A: 53.4 µM (active)

Q: What about the CC50 [9] of the same molecule?
A: > 40 µM (active)

Q: And the EC50 [17]?
A: > 60 µM (not active)

Q: What about the EC50 [21] of the same molecule?
A: 7.26 µM (active)

Reference: ChEMBL document CHEMBL1201862, “PubChem BioAssay data set” (2004)
